Test results reported in the supplement of paper PMC10307832.

Assays:
Assay in all cases: relative viability (nuclei count vs DMSO), 5 days (fraction); higher = more cells survive
[1] = compound: C[C@]12O[C@H](C[C@]1(O)CO)n1c3ccccc3c3c4c(c5c6ccccc6n2c5c31)CNC4=O [Lestaurtinib] + Nc1nc2[nH]cc(CCc3ccc(C(=O)N[C@@H](CCC(=O)O)C(=O)O)cc3)c2c(=O)[nH]1 [Pemetrexed] (partner 0.2 µM)
Procedure, shortened: (§1)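 Relative viability is defined as nuclei in treated wells over nuclei in vehicle wells. Duplicate plates were run and medians reported. Lung cancer cell lines in 1536-well plates were dosed by pin tool one day after seeding, with one drug or with a fixed anchor-drug dose plus five library-drug doses (not always all listed) in √10 steps, and nuclei were counted after 5 days.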

[2] = compound: C[C@]12O[C@H](C[C@]1(O)CO)n1c3ccccc3c3c4c(c5c6ccccc6n2c5c31)CNC4=O [Lestaurtinib] + CCNC(=O)c1noc(-c2cc(C(C)C)c(O)cc2O)c1-c1ccc(CN2CCOCC2)cc1 [Luminespib] (partner 0.01 µM)
Procedure, shortened: as §1

[3] = compound: C1=CC(=CC=C1C2=CC(=C(S2)NC(=O)N)C(=O)N)F [TPCA-1] + C[C@]1(O)C[C@@H](c2nc(-c3ccc4ccc(-c5ccccc5)nc4c3)c3c(N)nccn32)C1 [Linsitinib] (partner 1 µM)
Procedure, shortened: as §1

[4] = compound: C[C@]12O[C@H](C[C@]1(O)CO)n1c3ccccc3c3c4c(c5c6ccccc6n2c5c31)CNC4=O [Lestaurtinib] + COc1cccc2cc(-c3nc([C@H]4CC[C@H](C(=O)O)CC4)n4ncnc(N)c34)[nH]c12 [OSI-027] (partner 0.5 µM)
Procedure, shortened: as §1

Cell Line	relative viability ([1]; first compound 0.005 µM)	relative viability ([1]; first compound 0.01581 µM)	relative viability ([1]; first compound 0.05 µM)	relative viability ([1]; first compound 0.1581 µM)	relative viability ([1]; first compound 0.5 µM)	relative viability ([2]; first compound 0.005 µM)	relative viability ([2]; first compound 0.01581 µM)	relative viability ([2]; first compound 0.05 µM)	relative viability ([2]; first compound 0.1581 µM)	relative viability ([2]; first compound 0.5 µM)	relative viability ([3]; first compound 0.04 µM)	relative viability ([3]; first compound 0.1265 µM)	relative viability ([3]; first compound 0.4 µM)	relative viability ([3]; first compound 1.265 µM)	relative viability ([3]; first compound 4 µM)	relative viability ([4]; first compound 0.005 µM)	relative viability ([4]; first compound 0.01581 µM)	relative viability ([4]; first compound 0.1581 µM)	relative viability ([4]; first compound 0.5 µM)	relative viability ([4]; first compound 0.05 µM)
201T	0.34	0.342	0.317	0.279	0.251	1.16	1.07	1.14	1.09	0.357	1.03	0.982	1.09	1.09	0.835	0.766	0.982	0.63	0.447	
A549											0.627	0.567	0.638	0.469	0.314					
A-427	0.865	1.14	0.925	0.503	0.275	1.03	0.797	0.649	0.298	0.185	1.13	1.06	1.17	1.09	1.12	0.473	0.402	0.233	0.146	0.257
ABC-1							0.323	0.445	0.331	0.178	0.936	0.714	0.662	0.579	0.524	0.505	0.65	0.456	0.175	0.342
BEN	0.782	0.841	0.663	0.555	0.358	0.249	0.298	0.278	0.326	0.213	0.973	0.728	1	0.877	0.692	0.463	0.313	0.298	0.196	0.3
CAL-12T	1.13	1.11	1.17	0.834	0.635	0.484	0.52	0.556	0.256	0.06	0.868	0.754	0.73	0.763	0.411	0.699	0.698	0.36	0.278	0.515
COR-L23	0.209	0.214	0.195	0.194	0.202	0.558	0.756	0.226	0.288	0.164	1.01	0.771	0.975	0.821	0.565	0.612	0.933	0.395	0.343	0.281
COR-L 105	1.06	1.19	1.14	0.743	0.631	0.843	0.826	0.532	0.67	0.263	0.959	1.03	0.801	0.862	0.781	0.616	0.696	0.441	0.23	0.565
Calu-6											1.15	0.941	0.962	0.847	0.68					
ChaGo-K-1	0.267	0.268	0.261	0.249	0.205	0.62	0.706	0.698	0.479	0.223						0.608	0.626	0.376	0.373	0.5
EBC-1											1.06	0.825	0.815	0.844	0.814					
EKVX	0.419		0.276	0.398	0.256	0.951	0.876	0.999	0.821	0.541	1.1	0.868	1.08	0.69	0.846	0.773	0.697	0.717	0.602	0.79
EMC-BAC-2	0.452	0.429	0.488	0.352	0.308	1.15	1.33	0.806	0.434	0.323	0.848	0.739	0.822	0.837	0.66	0.38	0.365	0.308	0.263	0.363
EPLC-272H	0.308	0.349	0.452	0.189	0.0958	0.196	0.235	0.184	0.241	0.133	1.3	1.09	1.33	1.03	1.01	0.288	0.278	0.223	0.166	0.222
H3255	0.578	0.623	0.493	0.563	0.428	0.766	0.94	0.835	0.716	0.486	1.06	0.826	0.95	0.866	0.708	0.63	0.515	0.36	0.276	0.56
HARA	0.265	0.246	0.203	0.171	0.196	0.682	0.847	0.681	0.872	0.0984	0.916	0.856	1.05	0.924	0.804	0.629	0.469	0.278	0.104	0.324
HCC-15	0.244	0.227	0.229	0.195	0.138	0.365	0.552	0.341	0.294	0.157	0.951	0.886	0.82	0.895	0.802	0.717	0.757	0.464	0.185	0.658
HCC-44	0.635	0.685	0.491	0.648	0.377	1.14	1.22	0.623	0.873	0.308	0.608	0.63	0.705	0.656	0.666	0.548	0.654	0.659	0.705	0.462
HCC-78	0.9	0.918	0.851	1	0.903						0.555	0.429	0.506	0.413	0.399	0.34	0.417	0.381	0.29	0.323
